Source: patent publication US8901307B2, “Chemical compounds 251” (AstraZeneca AB, priority 2008, dated 2014)
Counter-ions that a name gives are not always drawn.

Key:
human His-PIM1 [2-313] = target: T1, human His-PIM1 [2-313] (Homo sapiens, UniProt P11309); experiment: PIM1 in-vitro mobility shift assay (Caliper LC3000, FL-Ahx-Bad phosphorylation); format: biochemical; conditions: 1.5 h; percent inhibition at 0.3 uM compound; read-out: PIM1 % I at 0.3 uM
T1 construct: purified human His-PIM1 [2-313] enzyme; His (N); purchased University of Dundee, Scotland; host or cells: baculovirus system
T1 sequence (P11309 2-313): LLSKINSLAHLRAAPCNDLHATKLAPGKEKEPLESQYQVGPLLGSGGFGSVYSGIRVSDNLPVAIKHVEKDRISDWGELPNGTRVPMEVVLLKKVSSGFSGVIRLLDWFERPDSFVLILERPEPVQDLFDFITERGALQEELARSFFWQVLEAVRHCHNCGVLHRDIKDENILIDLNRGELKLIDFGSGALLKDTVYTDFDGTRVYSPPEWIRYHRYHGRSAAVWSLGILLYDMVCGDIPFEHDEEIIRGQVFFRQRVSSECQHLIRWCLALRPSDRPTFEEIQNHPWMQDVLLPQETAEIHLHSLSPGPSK
How it was run: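 Compound preincubated 20 min at 25 °C with 2.4 nM PIM1, 3.6 µM FL-Ahx-Bad peptide and 240 µM ATP (1.2× mix concentrations). Reaction started with 24 mM MgCl2 mix, run 90 min at 25 °C, EDTA-stopped. Phospho/unphospho peptide separated by microfluidic mobility shift; percent inhibition from ratiometric turnover.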

human His-PIM2 [23-299] = target: T2, human His-PIM2 [23-299] (Homo sapiens, UniProt Q9P1W9); experiment: PIM2 in-vitro mobility shift assay (Caliper LC3000, FL-Ahx-Bad phosphorylation); format: biochemical; conditions: 1.5 h; percent inhibition at 0.3 uM compound; read-out: PIM2 % I at 0.3 uM
T2 construct: purified human His-PIM2 [23-299] enzyme; His (N); host or cells: E. coli
T2 sequence (Q9P1W9 23-299): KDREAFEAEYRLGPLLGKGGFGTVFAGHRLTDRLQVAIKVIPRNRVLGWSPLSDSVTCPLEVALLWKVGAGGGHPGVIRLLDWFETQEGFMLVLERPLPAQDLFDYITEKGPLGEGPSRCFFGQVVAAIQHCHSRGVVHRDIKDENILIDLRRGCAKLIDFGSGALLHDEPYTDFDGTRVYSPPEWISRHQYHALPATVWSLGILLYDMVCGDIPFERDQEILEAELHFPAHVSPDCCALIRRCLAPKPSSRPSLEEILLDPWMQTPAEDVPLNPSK

inhibition at 0.3 µM (human His-PIM1 [2-313]) | inhibition at 0.3 µM (human His-PIM2 [23-299]) | Structure (SMILES)
> 95% | > 95% | N[C@@H]1CCCN(c2c(Cl)cc(C(F)(F)F)cc2/C=C2\SC(=O)NC2=O)C1 [Example 2]
< 5% | < 5% | CN(C)[C@H]1CCN(c2cccc(Cl)c2C=C2SC(=O)NC2=O)C1 [Example 84O, (S)-5-(2-chloro-6-(3-(dimethylamino)pyrrolidin-1-yl)benzylidene)thiazolidine-2,4-dione]
> 95% | > 95% | CNCCNC1CCN(c2cc(OC)c(OC)cc2/C=C2\SC(=O)NC2=O)C1 (centres unmarked) [Example 113, (Z)-5-(4,5-dimethoxy-2-(3-(2-(methylamino)ethylamino)pyrrolidin-1-yl)benzylidene)thiazolidine-2,4-dione hydrochloride]
88.1% | 73.1% | COc1cc(/C=C2\SC(=O)NC2=O)c(N2CCC(N(C)C)CC2)cc1OC [Example 54, (5Z)-5-{2-(4-(dimethylamino)piperidin-1-yl)-4,5-dimethoxybenzylidene}-thiazolidine-2,4-dione]
79.8% | 31.7% | COc1ccc(OCCCNC(C)C)c(C=C2SC(=O)NC2=O)c1 [Example 150]
55.4% | 14.7% | COc1ccc(N2CCC(N(C)C)C2)c(/C=C2\SC(=O)NC2=O)c1 (centres unmarked) [Example 43, (5Z)-5-{2-[3-(dimethylamino)pyrrolidin-1-yl]-5-methoxybenzylidene}-1,3-thiazolidine-2,4-dione]
81.8% | 28.1% | COc1ccc(OCCN2CCCCC2)c(/C=C2\SC(=O)NC2=O)c1 [Example 61, (Z)-5-(5-methoxy-2-(2-(piperidin-1-yl)ethoxy)benzylidene)thiazolidine-2,4-dione]
< 5% | < 5% | O=C1NC(=O)/C(=C/c2ccncc2)S1 [Example 72, (Z)-5-(pyridin-4-ylmethylene)thiazolidine-2,4-dione]
> 95% | > 95% | O=C1NC(=O)/C(=C/c2ccccc2N2CCN(C(=O)C3CCCNC3)CC2)S1 (centres unmarked) [Example 116, 5-(2-(4-(piperidine-3-carbonyl)piperazin-1-yl)benzylidene)thiazolidine-2,4-dione hydrochloride]
40.1% | 14.3% | COc1cc(/C=C2\SC(=O)NC2=O)c(N2CCC(O)C2)cc1OC (centres unmarked) [Example 45, (5Z)-5-[2-(3-hydroxypyrrolidin-1-yl)-4,5-dimethoxybenzylidene]-1,3-thiazolidine-2,4-dione]
58.8% | 23.3% | COc1cc(/C=C2\SC(=O)NC2=O)c(N2CCC(O)CC2)cc1OC [Example 42, (5Z)-5-[2-(4-hydroxypiperidine-1-yl)-4,5-dimethoxybenzylidene]-1,3-thiazolidine-2,4-dione]
> 95% | > 95% | NCCCC(=O)N1CCN(c2ccccc2/C=C2\SC(=O)NC2=O)CC1 [Example 107, (Z)-5-(2-(4-(4-aminobutanoyl)piperazin-1-yl)benzylidene)thiazolidine-2,4-dione hydrochloride]
> 95% | 92.3% | NC[C@H]1CCN(c2c(Cl)cccc2/C=C2\SC(=O)NC2=O)C1 [Example 122B, (R,Z)-5-(2-(3-(aminomethyl)pyrrolidin-1-yl)-3-chlorobenzylidene)thiazolidine-2,4-dione]
> 95% | 92.4% | NCCCC(=O)N1CCCN(c2ccccc2/C=C2\SC(=O)NC2=O)CC1 [Example 104, (Z)-5-(2-(4-(4-aminobutanoyl)-1,4-diazepan-1-yl)benzylidene)thiazolidine-2,4-dione hydrochloride]
> 95% | 69.9% | CN(C)[C@H]1CCN(c2c(Cl)cc(C(F)(F)F)cc2/C=C2\SC(=O)NC2=O)C1 [Example 14]
> 95% | > 95% | N[C@@H]1CCCN(c2c(/C=C3\SC(=O)NC3=O)cccc2OC2CCCCC2)C1 [Example 122L, hydrochloride]
